Results from ChEMBL document CHEMBL1201862, “PubChem BioAssay data set” (2004).
pIC50: −log10 of the molar value. The source made the active and inactive calls.

Key:
[1] = target: T1, Kappa-type opioid receptor (Homo sapiens, UniProt P41145); type: functional
[2] = target: T2, Delta-type opioid receptor (Homo sapiens, UniProt P41143); assay: HTS Image-Based Screen for Agonists of the DOR Receptor. [Related pubchem assays (depositor defined):AID1777, AID1786, AID2133]; type: functional
[3] = target: T2, Delta-type opioid receptor; assay: HTS Image-Based Screen for Antagonists of the DOR Receptor. [Related pubchem assays (depositor defined):AID1777, AID1785, AID1786, AID2133]; type: functional
[4] = target: T1, Kappa-type opioid receptor; type: functional; remark: listed apart in the source
Mu-type opioid receptor = Mu-type opioid receptor (Homo sapiens, UniProt P35372); assay: HTS Image-Based Screen for Agonists of the MOR Receptor. [Related pubchem assays (depositor defined):AID1777, AID1785, AID1786, AID2133]; type: functional;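 note: imaging of beta-arrestin GFP recruitment into spots after receptor activation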
Beta-galactosidase [5] = target: T3, Beta-galactosidase (Escherichia coli, UniProt Q8VNN2); type: functional
Beta-galactosidase [6] = target: T3, Beta-galactosidase; assay: beta-galactosidase enzyme inhibitors and activators, dose response, artefact control for CCR6 antagonist project, biochemical, E. coli enzyme, set 3 (AID 504712); type: functional
[7] = cytotoxicity toward NIH3T3 fibroblasts, dose response, counter-screen, cell-based, ATP luminescence, mouse fibroblasts (AID 2010); type: functional;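 note: cells exposed to compound for about 90 hours before reading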
[8] = target: T4, Microphthalmia-associated transcription factor (Homo sapiens, UniProt O75030); assay: TRPM1 promoter luciferase signal decrease, dose response, MITF inhibitor project, cell-based, SK-MEL-5, cherry-picked, set 3 (AID 493073); type: functional
T4 sequence (O75030 whole entry): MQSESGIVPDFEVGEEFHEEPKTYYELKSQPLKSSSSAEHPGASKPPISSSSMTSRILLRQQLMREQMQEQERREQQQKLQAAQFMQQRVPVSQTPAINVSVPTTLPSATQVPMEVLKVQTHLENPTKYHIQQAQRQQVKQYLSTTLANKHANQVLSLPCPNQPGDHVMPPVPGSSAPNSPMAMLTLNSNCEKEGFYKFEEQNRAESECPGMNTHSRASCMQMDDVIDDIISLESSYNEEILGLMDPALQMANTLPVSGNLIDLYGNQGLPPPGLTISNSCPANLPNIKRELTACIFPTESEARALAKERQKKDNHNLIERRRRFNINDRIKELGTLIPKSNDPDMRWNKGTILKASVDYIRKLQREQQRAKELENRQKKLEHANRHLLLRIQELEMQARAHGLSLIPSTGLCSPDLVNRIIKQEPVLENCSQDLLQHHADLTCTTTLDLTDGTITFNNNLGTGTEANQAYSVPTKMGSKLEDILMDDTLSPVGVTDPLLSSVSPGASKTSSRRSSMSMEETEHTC

[9] = inhibitors of intracellular T. cruzi replication, confirmation, NIH3T3 host cells, beta-gal luminescence (AID 2044); type: functional, cell-based;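 note: intracellular parasites grown in NIH/3T3 mouse fibroblasts as host cells; luminescent beta-galactosidase reporter signal from transgenic T. cruzi replicating inside host cells; inhibitors lower the luminescence signal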
A-375 [10] = assay: A375 melanoma cell viability reduction, dose response, counter-screen for MITF modulator project, cherry-pick samples, set 2 (AID 540335); type: functional, cell-based; conditions: Homo sapiens
[11] = target: Beta-2 adrenergic receptor (Homo sapiens, UniProt P07550); assay: beta2AR agonists driving receptor internalization, dose response, cell-based, FAP fluorogen, flow cytometry, cherry pick 1 (AID 588763); type: functional
[12] = insulin promoter down-regulators in MIN6 cells, imaging, high-content screening, mouse beta cells (AID 1628); type: functional
[13] = cytotoxicity in MIN6 insulinoma cells, dose response, cytotoxicity control, cell-based, mouse insulinoma (AID 2122); type: functional;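 note: confirmatory high-throughput counterscreen run to flag cytotoxic compounds; mouse MIN-6 beta cells carrying an insulin promoter eGFP reporter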
Cytochrome P450 1A2 = target: T5, Cytochrome P450 1A2 (Homo sapiens, UniProt P05177);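 note: PubChem cytochrome P450 panel assay, CYP1A2 panel member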
T5 sequence (P05177 whole entry): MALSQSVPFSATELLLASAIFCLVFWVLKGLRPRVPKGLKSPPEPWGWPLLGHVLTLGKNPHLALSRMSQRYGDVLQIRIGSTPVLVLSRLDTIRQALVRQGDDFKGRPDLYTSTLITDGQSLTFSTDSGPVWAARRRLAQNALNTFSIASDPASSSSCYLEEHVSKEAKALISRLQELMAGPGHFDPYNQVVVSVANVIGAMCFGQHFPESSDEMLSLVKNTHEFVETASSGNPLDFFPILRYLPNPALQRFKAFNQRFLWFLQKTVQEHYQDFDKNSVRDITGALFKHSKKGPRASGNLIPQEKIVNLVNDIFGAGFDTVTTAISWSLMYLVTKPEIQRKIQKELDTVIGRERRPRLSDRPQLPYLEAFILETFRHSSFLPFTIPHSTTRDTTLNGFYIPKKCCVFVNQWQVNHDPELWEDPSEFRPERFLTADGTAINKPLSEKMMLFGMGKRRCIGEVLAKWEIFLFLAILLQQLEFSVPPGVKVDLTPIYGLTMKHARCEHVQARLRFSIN

Cytochrome P450 2C9 [14] = target: T6, Cytochrome P450 2C9 (Homo sapiens, UniProt P11712)
Cytochrome P450 2D6 = Cytochrome P450 2D6 (Homo sapiens, UniProt P10635);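 note: CYP2D6 member of a cytochrome P450 panel assay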
SUMO E1/E2 = SUMO E1/E2 (Homo sapiens, UniProt P63279+Q9UBE0+Q9UBT2); assay: SAR analysis of SUMOylation using HTRF in an in-Vitro dose response assay. [Related pubchem assays (depositor defined):AID2006, AID2011, AID2018, AID2069, AID2658]; type: functional
[15] = target: T7, Voltage-gated N-type calcium channel alpha-1B subunit/Amyloid beta A4 precursor protein-binding family A member 1 (Homo sapiens, UniProt Q00975+Q02410); assay: disruptors of Mint-PDZ/N-type channel peptide interaction – biochemical, HTRF, SAR follow-up (AID 2489); type: functional
[16] = target: T7, Voltage-gated N-type calcium channel alpha-1B subunit/Amyloid beta A4 precursor protein-binding family A member 1; assay: disruptors of Mint-PDZ/N-type channel peptide interaction – biochemical, HTRF, set 2, SAR follow-up (AID 434980); type: functional
Phosphomannomutase 2 = Phosphomannomutase 2 (Homo sapiens, UniProt O15305); assay: Counter screen SAR assay for PMM2 inhibitors via a fluorescence intensity assay. [Related pubchem assays (depositor defined):AID1545, AID1574]
[17] = target: T8, Mannose-6-phosphate isomerase (Homo sapiens, UniProt P34949); assay: PMI enzyme inhibitors, confirmation, biochemical, fluorescence intensity (AID 1535)
T8 sequence (P34949 whole entry): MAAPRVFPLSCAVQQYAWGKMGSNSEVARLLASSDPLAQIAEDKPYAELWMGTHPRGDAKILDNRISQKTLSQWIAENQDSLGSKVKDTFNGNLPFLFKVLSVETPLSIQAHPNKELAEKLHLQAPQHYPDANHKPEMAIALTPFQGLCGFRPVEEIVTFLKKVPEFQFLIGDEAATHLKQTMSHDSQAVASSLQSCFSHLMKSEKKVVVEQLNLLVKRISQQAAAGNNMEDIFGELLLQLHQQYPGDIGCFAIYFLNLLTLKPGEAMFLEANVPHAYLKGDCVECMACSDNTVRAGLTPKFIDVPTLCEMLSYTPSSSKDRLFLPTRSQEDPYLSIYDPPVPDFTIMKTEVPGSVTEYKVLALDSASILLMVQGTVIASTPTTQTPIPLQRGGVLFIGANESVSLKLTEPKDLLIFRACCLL

Cytochrome P450 2C19 = Cytochrome P450 2C19 (Homo sapiens, UniProt P33261); assay: Cytochrome panel assay with activity outcomes. Panel member name: p450-cyp2c19 Compounds with AC50 equal or less than 10 uM are considered active; type: functional
A-375 [18] = assay: MITF: Counter assay: A375 proliferation Measured in Cell-Based System Using Plate Reader - 2084-03_Inhibitor_Dose_DryPowder_Activity. [Related pubchem assays (depositor defined):AID488944]; type: functional; conditions: Homo sapiens
[19] = target: Glyceraldehyde-3-phosphate dehydrogenase (Homo sapiens, UniProt P04406)
HEK293 [20] = assay: cells; type: functional, cell-based; conditions: Homo sapiens
[21] = target: T9, Nuclear receptor subfamily 0 group B member 1 (Homo sapiens, UniProt P51843); assay: Luminescence-based cell-based high throughput dose response assay for inhibitors of the orphan nuclear receptor subfamily 0, group B, member 1 (DAX1; NR0B1). [Related pubchem assays (depositor defined):AID504766, AID504790]; type: functional
T9 sequence (P51843 whole entry): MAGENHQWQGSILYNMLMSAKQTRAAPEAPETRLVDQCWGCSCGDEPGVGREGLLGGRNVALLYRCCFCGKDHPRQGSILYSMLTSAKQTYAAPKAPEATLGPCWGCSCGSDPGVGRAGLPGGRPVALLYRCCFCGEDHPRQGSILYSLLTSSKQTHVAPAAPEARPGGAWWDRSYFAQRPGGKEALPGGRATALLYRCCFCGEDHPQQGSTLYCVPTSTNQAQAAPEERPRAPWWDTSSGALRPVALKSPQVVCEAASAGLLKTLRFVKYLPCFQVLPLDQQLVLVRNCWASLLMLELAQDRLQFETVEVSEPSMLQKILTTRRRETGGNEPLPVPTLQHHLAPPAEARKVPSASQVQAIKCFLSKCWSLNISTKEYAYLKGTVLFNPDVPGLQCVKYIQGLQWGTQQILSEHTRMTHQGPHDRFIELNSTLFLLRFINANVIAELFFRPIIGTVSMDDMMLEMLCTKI

Cytochrome P450 2C9 [22] = target: T6, Cytochrome P450 2C9; remark: listed apart in the source
HEK293 [23] = assay: cytotoxicity in HEK293T NF-kB-Luc cells, SAR follow-up, cytotoxicity control for NF-kB activator project, cell-based, resazurin fluorescence (AID 493251); type: functional; conditions: Homo sapiens
Jurkat = assay: SAR Analysis of small molecule inhibitors of T-cell specific antigen receptor-induced NF-kB activation in a Jurkat cell line using a luminescence assay - Set 2. [Related pubchem assays (depositor defined):AID435003, AID435012, AID465]; type: functional, cell-based; conditions: Homo sapiens
HEK293 [24] = assay: SAR Analysis of small molecule inhibitors of T-cell specific antigen receptor-induced NF-kB activation in a HEK-293T cell line using a luminescence assay - Set 2. [Related pubchem assays (depositor defined):AID435003, AID435012, AID489026]; type: functional, cell-based; conditions: Homo sapiens
[25] = cytotoxicity in HEK-293T cells, dose response, cytotoxicity control for BCR NF-kB inhibitor project, luminescence, B-cell screen hits (AID 489021); type: functional, cell-based;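 note: HEK-293T cells carrying an NF-kB luciferase reporter; cells exposed to compound for about 14 hours before viability readout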
Nonstructural protein 1 = Nonstructural protein 1 (Influenza A virus, UniProt Q194T2); type: functional, Influenza A virus (A/California/07/2009(H1N1))
[26] = target: Lysine-specific demethylase 4C (Homo sapiens, UniProt Q9H3R0); assay: GASC-1 (JMJD2C) histone demethylase inhibitors, dose response, biochemical, DELFIA europium, cherry-picked samples (AID 488835); type: functional
[27] = NIH-3T3 fibroblast cytotoxicity, dose response, cytotoxicity control, cell-based, fluorescence, Alamar Blue, secondary assay (AID 2327); type: functional;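 note: NIH-3T3 mouse fibroblasts cultured with fluconazole at 8 µg/mL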

T6 sequence (P11712 whole entry): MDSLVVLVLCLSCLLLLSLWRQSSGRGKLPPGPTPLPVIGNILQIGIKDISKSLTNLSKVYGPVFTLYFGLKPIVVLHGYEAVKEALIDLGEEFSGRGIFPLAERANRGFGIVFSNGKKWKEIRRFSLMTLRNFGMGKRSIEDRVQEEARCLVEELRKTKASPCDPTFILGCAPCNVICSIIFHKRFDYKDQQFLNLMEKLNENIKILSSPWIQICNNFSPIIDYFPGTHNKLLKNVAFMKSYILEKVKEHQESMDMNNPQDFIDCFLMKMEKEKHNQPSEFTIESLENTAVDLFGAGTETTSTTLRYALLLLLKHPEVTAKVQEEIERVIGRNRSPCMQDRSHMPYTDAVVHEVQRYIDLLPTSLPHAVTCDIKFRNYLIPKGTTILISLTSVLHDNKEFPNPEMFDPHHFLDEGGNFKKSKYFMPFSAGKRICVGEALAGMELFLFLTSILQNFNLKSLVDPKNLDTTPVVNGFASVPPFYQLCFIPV
T7 sequence (Q00975 whole entry): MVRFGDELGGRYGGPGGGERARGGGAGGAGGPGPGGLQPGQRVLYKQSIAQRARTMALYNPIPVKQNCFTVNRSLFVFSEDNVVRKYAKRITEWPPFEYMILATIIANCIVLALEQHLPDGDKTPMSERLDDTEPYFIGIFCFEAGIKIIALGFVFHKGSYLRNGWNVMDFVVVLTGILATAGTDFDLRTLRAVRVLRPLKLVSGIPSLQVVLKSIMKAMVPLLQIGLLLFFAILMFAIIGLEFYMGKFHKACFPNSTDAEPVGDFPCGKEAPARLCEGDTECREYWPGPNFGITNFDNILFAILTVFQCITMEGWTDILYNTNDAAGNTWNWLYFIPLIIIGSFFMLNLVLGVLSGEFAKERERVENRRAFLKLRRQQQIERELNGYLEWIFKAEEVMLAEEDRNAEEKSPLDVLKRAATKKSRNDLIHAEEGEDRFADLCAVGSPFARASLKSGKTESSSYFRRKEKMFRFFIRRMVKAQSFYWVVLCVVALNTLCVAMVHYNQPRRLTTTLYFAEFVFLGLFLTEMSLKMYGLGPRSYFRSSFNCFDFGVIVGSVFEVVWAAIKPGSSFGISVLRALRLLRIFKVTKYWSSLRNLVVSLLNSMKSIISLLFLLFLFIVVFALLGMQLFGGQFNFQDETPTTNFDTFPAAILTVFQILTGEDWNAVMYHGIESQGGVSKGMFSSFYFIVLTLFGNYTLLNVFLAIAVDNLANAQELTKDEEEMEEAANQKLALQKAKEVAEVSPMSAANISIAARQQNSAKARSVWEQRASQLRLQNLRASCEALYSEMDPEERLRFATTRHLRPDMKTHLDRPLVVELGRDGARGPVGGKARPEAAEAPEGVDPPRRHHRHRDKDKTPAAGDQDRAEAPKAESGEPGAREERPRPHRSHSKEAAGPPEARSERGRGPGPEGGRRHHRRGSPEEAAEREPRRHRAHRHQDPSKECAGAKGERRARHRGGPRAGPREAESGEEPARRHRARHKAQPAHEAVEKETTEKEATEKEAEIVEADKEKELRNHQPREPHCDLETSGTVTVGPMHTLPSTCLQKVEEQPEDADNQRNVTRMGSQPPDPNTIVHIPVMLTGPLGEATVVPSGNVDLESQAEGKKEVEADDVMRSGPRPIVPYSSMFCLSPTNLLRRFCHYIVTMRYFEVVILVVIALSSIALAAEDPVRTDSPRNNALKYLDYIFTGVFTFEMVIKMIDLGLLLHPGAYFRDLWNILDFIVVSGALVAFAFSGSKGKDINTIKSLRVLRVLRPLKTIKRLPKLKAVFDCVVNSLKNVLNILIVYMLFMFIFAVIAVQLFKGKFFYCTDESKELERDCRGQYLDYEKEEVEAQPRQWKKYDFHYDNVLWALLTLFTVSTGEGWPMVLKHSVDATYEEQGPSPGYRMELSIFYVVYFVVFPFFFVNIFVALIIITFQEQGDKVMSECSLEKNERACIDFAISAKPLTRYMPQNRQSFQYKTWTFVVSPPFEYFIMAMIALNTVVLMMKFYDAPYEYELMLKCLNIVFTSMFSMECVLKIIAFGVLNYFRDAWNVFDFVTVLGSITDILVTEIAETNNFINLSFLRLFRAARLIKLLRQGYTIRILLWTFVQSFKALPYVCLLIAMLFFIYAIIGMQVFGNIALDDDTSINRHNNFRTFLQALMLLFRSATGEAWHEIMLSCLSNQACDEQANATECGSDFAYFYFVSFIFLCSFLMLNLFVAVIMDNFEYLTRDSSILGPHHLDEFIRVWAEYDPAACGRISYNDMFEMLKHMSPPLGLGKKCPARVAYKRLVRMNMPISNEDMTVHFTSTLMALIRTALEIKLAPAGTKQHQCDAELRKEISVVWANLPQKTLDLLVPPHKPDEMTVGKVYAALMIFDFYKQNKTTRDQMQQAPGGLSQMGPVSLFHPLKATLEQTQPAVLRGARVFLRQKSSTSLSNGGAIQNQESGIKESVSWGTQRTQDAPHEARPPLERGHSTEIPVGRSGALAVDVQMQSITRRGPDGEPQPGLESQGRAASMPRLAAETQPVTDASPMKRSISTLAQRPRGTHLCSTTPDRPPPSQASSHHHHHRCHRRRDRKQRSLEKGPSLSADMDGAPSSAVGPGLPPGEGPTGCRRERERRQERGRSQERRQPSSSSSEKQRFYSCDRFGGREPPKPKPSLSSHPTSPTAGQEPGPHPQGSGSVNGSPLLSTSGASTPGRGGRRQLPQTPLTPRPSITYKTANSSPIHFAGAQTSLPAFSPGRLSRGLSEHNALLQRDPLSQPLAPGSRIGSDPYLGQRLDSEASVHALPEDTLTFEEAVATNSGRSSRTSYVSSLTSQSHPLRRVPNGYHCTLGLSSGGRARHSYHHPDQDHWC
T7 sequence (Q02410 whole entry): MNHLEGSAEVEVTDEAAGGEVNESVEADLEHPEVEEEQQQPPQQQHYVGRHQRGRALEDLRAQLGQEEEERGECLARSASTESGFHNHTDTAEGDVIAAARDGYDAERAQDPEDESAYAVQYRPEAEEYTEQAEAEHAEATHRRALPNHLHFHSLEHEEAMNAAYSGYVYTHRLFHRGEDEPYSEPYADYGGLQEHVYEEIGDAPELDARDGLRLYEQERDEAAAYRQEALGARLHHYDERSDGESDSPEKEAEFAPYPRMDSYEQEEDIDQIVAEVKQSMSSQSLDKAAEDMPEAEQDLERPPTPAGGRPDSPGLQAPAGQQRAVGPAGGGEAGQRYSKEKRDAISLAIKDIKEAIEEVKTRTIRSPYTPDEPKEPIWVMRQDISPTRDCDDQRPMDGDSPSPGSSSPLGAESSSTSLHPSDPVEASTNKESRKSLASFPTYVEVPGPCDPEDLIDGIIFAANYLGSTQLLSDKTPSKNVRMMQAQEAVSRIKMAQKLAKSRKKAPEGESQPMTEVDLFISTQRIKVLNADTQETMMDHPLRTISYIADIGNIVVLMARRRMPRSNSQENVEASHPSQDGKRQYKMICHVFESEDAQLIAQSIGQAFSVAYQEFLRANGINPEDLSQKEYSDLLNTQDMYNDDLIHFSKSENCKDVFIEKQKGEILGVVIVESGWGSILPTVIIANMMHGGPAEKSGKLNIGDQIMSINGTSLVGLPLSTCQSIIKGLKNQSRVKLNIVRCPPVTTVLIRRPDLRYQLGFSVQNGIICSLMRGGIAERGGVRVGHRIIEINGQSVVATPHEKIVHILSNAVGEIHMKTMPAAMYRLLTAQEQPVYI
SUMO E1/E2, sequence (Q9UBE0 whole entry): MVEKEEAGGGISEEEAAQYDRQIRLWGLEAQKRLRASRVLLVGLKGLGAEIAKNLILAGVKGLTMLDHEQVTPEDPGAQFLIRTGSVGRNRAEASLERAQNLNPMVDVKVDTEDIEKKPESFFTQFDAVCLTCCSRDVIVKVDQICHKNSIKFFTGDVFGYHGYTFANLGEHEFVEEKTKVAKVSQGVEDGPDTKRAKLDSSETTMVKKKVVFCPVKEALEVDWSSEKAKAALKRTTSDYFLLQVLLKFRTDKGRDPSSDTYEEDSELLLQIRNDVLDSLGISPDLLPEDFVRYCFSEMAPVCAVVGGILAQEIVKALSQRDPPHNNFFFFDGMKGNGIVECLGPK
SUMO E1/E2, sequence (Q9UBT2 whole entry): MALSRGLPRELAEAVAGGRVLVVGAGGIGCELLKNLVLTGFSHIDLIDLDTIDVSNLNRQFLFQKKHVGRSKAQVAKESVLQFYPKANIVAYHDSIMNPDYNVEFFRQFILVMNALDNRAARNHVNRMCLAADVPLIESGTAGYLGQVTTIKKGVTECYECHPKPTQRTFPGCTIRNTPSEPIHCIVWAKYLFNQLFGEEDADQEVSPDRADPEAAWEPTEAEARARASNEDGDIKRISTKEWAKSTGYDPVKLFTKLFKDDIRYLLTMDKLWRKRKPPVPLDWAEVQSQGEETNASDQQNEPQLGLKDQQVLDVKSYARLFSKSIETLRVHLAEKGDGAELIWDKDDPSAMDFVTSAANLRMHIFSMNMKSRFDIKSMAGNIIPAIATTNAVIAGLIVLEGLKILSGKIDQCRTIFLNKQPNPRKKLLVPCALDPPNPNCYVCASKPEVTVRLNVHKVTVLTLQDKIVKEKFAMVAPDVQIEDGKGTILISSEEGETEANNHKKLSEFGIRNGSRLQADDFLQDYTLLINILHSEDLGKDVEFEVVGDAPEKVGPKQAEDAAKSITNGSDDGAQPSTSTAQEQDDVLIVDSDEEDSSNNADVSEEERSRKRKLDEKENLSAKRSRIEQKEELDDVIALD
SUMO E1/E2, sequence (P63279 whole entry): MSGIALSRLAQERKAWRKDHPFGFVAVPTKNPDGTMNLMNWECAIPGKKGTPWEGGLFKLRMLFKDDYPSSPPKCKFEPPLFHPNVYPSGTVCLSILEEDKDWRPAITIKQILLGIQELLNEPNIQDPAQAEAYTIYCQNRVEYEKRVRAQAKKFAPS
Nonstructural protein 1, sequence (Q194T2 whole entry): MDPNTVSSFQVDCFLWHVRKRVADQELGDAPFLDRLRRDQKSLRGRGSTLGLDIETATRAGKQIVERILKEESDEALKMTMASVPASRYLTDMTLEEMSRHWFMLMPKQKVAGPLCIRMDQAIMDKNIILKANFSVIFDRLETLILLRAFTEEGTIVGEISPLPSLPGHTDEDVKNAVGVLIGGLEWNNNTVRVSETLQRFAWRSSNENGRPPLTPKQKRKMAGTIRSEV

CCN(CCCNC(=O)C1CCN(S(=O)(=O)N2CCC3(CC2)OCCO3)CC1)c1ccccc1
IC50 [1]: 9.46 µM (active) | EC50 [2]: > 32 µM (inactive) | IC50 [3]: > 32 µM (inactive) | pIC50 [4]: 5.01 | EC50 (Mu-type opioid receptor): > 32 µM (inactive) | EC50 (Beta-galactosidase [5]): > 31.5 µM (inactive)

CS(=O)(=O)c1ccc([S+]([O-])CC(=O)OCc2ccccc2)c([N+](=O)[O-])c1 (stereo not drawn)
IC50 (Beta-galactosidase [6]): > 66.6 µM (inactive) | EC50 [7]: 2.01 µM (active) | AC50 [8]: 5.46 µM (active) | EC50 [9]: 3.05 µM (active) | AC50 (A-375 [10]): 21 µM (active)

C=CCc1ccc(OCCOc2ccc(/C=N/n3cnnc3)cc2OCC)c(OC)c1
EC50 [11]: 0.587 µM (active)

Cn1c2c(c(=O)[nH]c1=O)C(c1cccc(O)c1)C1=C(O)c3ccccc3C1=N2 (stereo not drawn)
IC50 [12]: 1.87 µM (active) | IC50 [13]: 1.92 µM (active)

COC(=O)N1CCC[C@@]2(CCN(c3ccncc3)C2)C1
AC50 (Cytochrome P450 1A2): inconclusive | AC50 (Cytochrome P450 2C9 [14]): inconclusive | AC50 (Cytochrome P450 2D6): inconclusive

COc1ccccc1COC(=O)COC(=O)c1cc(-c2ccco2)nc2ccccc12
IC50 (SUMO E1/E2): 12.9 µM (active) | IC50 [15]: 9.09 µM (active) | IC50 [16]: 6.59 µM (active)

O=[N+]([O-])c1ccc(/N=c2/ssnc2Cl)c([N+](=O)[O-])c1
IC50 (Phosphomannomutase 2): 58.4 µM (active) | IC50 [17]: 3.52 µM (active)

CS(=O)(=O)N1CCC2(CCN(c3cccc(-c4ccccc4)c3)CC2)CC1
AC50 (Cytochrome P450 1A2): inconclusive | AC50 (Cytochrome P450 2C9 [14]): inconclusive | AC50 (Cytochrome P450 2C19): inconclusive

O=C(Nc1ccc(-c2cn3c(n2)SCC3)cc1)c1ccco1
AC50 (A-375 [18]): > 35 µM (active) | AC50 (A-375 [10]): > 35 µM (active)

NS(=O)(=O)c1ccc2c(c1)C1C=CCC1C(c1ccc([N+](=O)[O-])cc1)N2 (stereo not drawn)
IC50 (SUMO E1/E2): > 100 µM (inactive) | IC50 [19]: > 100 µM (not active)

CCOc1ccc(CNC(=O)c2ccc(NC(=O)C3=CSCCO3)cc2)cc1
EC50 [11]: 0.0608 µM (active)

CN1C(C(=O)Nc2cccc(O)c2)=CC(c2ccco2)=NS1(=O)=O
IC50 (HEK293 [20]): > 67.6 µM (inactive) | IC50 [21]: > 67.6 µM (inactive)

CNC(=O)CCc1nc(-c2ccc(C(C)(C)C)cc2)no1
AC50 (Cytochrome P450 2C9 [22]): 0.355 µM (inconclusive) | IC50 (HEK293 [23]): > 80 µM (inactive) | IC50 (Jurkat): > 79 µM (inactive) | AC50 (Cytochrome P450 2C19; read-out: AC50): 39.8 µM (inconclusive) | IC50 (HEK293 [24]): 53.1 µM (inactive) | IC50 [25]: > 80 µM (inactive)

CC(=O)c1c(C)[nH]c(C(=O)Nc2ccc(Cl)c(S(=O)(=O)N(C)C)c2)c1C
IC50 (HEK293 [20]): > 67.5 µM (inactive) | IC50 [21]: > 67.5 µM (inactive)

Cc1ccc(O)c(NN=C2C(=O)CC(C)(C)CC2=O)c1
IC50 (Nonstructural protein 1): 13.2 µM (active) | AC50 [26]: 10.5 µM (active) | EC50 [27]: > 160 µM (inactive)
